Source: patent US11220534B2, “Treatment of neurological diseases” (Lancaster University Business Enterprises Limited, priority 2016, dated 2022)
Where no end group is shown, it is not given here. [ ]: non-standard residue; d: D form. Aib = CC(C)(N)C(=O)O

How the values were obtained:
[1] = test system: APP/PS1 transgenic mice; experiment: Immunohistochemical measurement of synaptic densities (synaptophysin) in the cortex of APP/PS1 transgenic mice; assay type: in vivo; settings: 10 nmol/kg i.p. once daily for 8 weeks, FIG. 2, N=6 per group
Excerpt: Animal models have been developed to test novel drugs. A standard model for Alzheimer's disease is transgenic mice that express human mutated genes for amyloid production that are known to induce Alzheimer's disease in humans. These APP/PS1 transgenic mice recapitulate some of the symptoms of Alzheimer's disease such as the aggregation of amyloid in the brain, memory loss and the loss of synapses (Radde et al., 2006).
The APP/PS1 mice express human Swedish mutated APP and human mutated presenilin-1 which induce Alzheimer's Disease in humans.
The dose of peptide tested was 10 nmol/kg body weight. The peptides were administered by a once-daily intraperitoneal injection for 8 weeks. Saline injections were administered as a control. Six animals per group were injected with a peptide or a saline control.
Animals (6 per group) were perfused transcardially with 30 ml of ice-cold PBS and 30 ml of ice-cold 4% paraformaldehyde to postfix the brain. The brains were removed and placed in fresh 30% sucrose solution in PBS to cryoprotect tissue and cut at a thickness of 40 μm on a cryostat. Sections were chosen according to stereological rules, with the first section taken at random and every 5th section afterwards. Between 7 and 13 sections were analysed per brain. […]

[2] = test system: APP/PS1 mice; experiment: In vivo hippocampal measurements of L-LTP in AD mice; settings: N=6 per group
Excerpt: Materials and methods in Example 2 are the same as Example 1 except when stated. Reagents used in Example 2 only include antibodies to p-PI3Kp85, PI3Kp85, p-Akt (ser473), Akt, p-GSK3β ([…]), and GSK3β from Abcam, Inc. Cambridge, UK. The antibody to p-tau (AT8) from Thermo Scientific USA. Mouse Anti-β-actin, Anti-Rabbit IgG, Anti-mouse IgG, CY3-Anti-mouse IgG, RIPA Lysate, BCA Protein Assay Kit, DAPI staining solution and Anti-fluorescence decay agent from Boster (Wuhan, China). Mice were anesthetized with urethane (Sigma, UK, 1.5 g/kg, i.p.) and placed in a stereotaxic apparatus (RWD Life Science, China) for L-LTP recording. Cut off the scalp and expose the skull, small holes were drilled on one side of the skull (2.0 mm posterior to bregma and 1.5 mm lateral to the midline). […] Baseline fEPSPs were elicited by test stimuli at an interval of 30 seconds and 30 minutes fEPSPs were recorded to observe whether the underlying synaptic transmission is affected. […] The change in PPF ratio, calculated by dividing the slope of the second fEPSP by the slope of the first fEPSP, is viewed to be related with the changes in neurotransmitter release from presynaptic terminals. […] The fEPSPs were recorded for 180 minutes after HFS. All events were recorded by a biological signal processing system (Chengdu Instruments Ltd, China). […]

[3] = test system: APP/PS1 mice; experiment: Immunostaining for phosphorylated tau protein in the hippocampus; assay type: in vivo; settings: APP/PS1 mice vs APP/PS1-saline; FIG. 10; N=4 per group
Excerpt: Materials and methods in Example 2 are the same as Example 1 except when stated. Reagents used in Example 2 only include antibodies to p-PI3Kp85, PI3Kp85, p-Akt (ser473), Akt, p-GSK3β ([…]), and GSK3β from Abcam, Inc. Cambridge, UK. The antibody to p-tau (AT8) from Thermo Scientific USA. Mouse Anti-β-actin, Anti-Rabbit IgG, Anti-mouse IgG, CY3-Anti-mouse IgG, RIPA Lysate, BCA Protein Assay Kit, DAPI staining solution and Anti-fluorescence decay agent from Boster (Wuhan, China). After in vivo hippocampal L-LTP recording, the mice were anesthetized with chloral hydrate (0.007 ml/g) by intraperitoneal injection and then the brain tissue was fixed with paraformaldehyde for 24 hours, after that the tissue was transferred to 30% sucrose solution for dehydration. The brain tissue was harvested, frozen in -80° C., and then sliced at a thickness of 30 μm, put the frozen section in PBS, blocked with normal goat serum (Solarbio, Beijing, China), followed by adding the primary antibody, second antibody and DAPI. Phosphorylated tau protein was observed by confocal laser scanning microscopy.

YXEGTFTSDYSIYLDKQAAXEFVNWLLAGGPSSGAPPPSKRRQRRKKRGY-NH2 (Y[Aib]EGTFTSDYSIYLDKQAA[Aib]EFVNWLLAGGPSSGAPPPSKRRQRRKKRGY-NH2) [DA5, No. 12; X=aminoisobutyric acid]
synapse loss / synaptic densities in the cortex [1]: protected from synapse loss | levels of L-LTP post neuronal stimuli ([2]; APP/PS1 mice, FIG. 9b): maintained high levels of L-LTP post neuronal stimuli | depression of L-LTP in the hippocampus ([2]; APP/PS1 transgenic mice, pre-treatment, FIG. 9a): able to reverse the depression of L-LTP | neurofibrillary tangles (immunofluorescence staining of p-tau protein) [3]: reduces neurofibrillary tangles
